Data: patent US8815535B2, “Disk diffusion assay for oritavancin” (The Medicines Company, priority 2011, dated 2014)
Several values for one entry are separate records, joined by “and”; a condition that tells them apart may be missing. Identical values can stand only once. Like-named read-outs stand apart in the source and are kept apart here.

Tested on: MSSA ATCC 25923
Assay: Disk diffusion assay (zone of inhibition)
Format: cell-based, Staphylococcus aureus
Details: for Average zone diameter: disks from 18 mg/ml oritavancin in 5% P80, 3-hour prediffusion; for zone of inhibition at 9000 µg/mL: read-out: Inhibition zone diameter, ATCC 25923; for zone of inhibition at 45 µg/disc: 45 μg oritavancin in 0.002% P80; for zone of inhibition at 90 µg/disc: 90 μg oritavancin in 0.002% P80; for zone of inhibition at 180 µg/disc: 180 μg oritavancin in 0.002% P80; for zone of inhibition at 12.5 µg/disc: 12.5 μg in 4% P80/Span 80 (1:1)
Excerpt: The study was designed to identify conditions that improve oritavancin diffusion in agar and consequently yield a zone diameter ≧15 mm for the CLSI quality control strain MSSA ATCC 25923. Excipients that increased the disk diffusion of oritavancin in agar relative to disks containing only oritavancin were identified and selected for further study. […] A prediffusion step at room temperature was introduced to maximize oritavancin diffusion prior to initiation of bacterial growth. In this step, the antimicrobial disks were placed on agar plates seeded with a bacterial isolate and incubated at room temperature for 3 hours. Plates were then incubated overnight at 37° C. Zone diameters around the disks in which bacterial growth was inhibited were measured with a ruler and reported in millimeters.
Ethanol-sterilized Whatman paper disks (6 mm diameter) were allowed to dry then impregnated with 20 microliters of oritavancin solution containing total amounts ranging from 90 to 360 micrograms. Disks were allowed to dry at room temperature for various times prior to use.
Bacterial suspensions were prepared and adjusted to an optical density of 0.1 at 600 nm. […] The plate was swabbed a second time, perpendicular to the orientation of the first swab. To assess the impact of prediffusion on diameter of inhibition zones, two disks were immediately placed on one half of the plate and the plate was incubated for 3 hours at room temperature. After 3 hours, two additional disks were placed on the other half of the plate then the plate was incubated overnight at 37° C. Zone diameters were measured with a ruler and reported in millimeters. […]
Oritavancin powder was dissolved in freshly-prepared solutions of the indicated excipients at concentrations of 0.625, 1.25, 2.5, 5, and 10 mg/ml (adjusted for potency based on lot 875561L00 purity of 83.1%) by vortexing for a minimum of 5 minutes. Oritavancin solutions in the various excipients, while not visually clear, were free from any apparent particulates as assessed visually. Sterile Oxoid blank disks were impregnated with 20 μl of these oritavancin solutions, resulting in oritavancin disk loads ranging from 12.5 to 200 μg. Unless indicated otherwise, disks were allowed to dry overnight at room temperature prior to use.
[…] Swabbing was continued at a right angle and then at an oblique angle to the first and second swabs. Disks were placed upon the seeded plates with sterile forceps. Plates were then incubated overnight at 37° C. and inhibition zone diameters were measured with a ruler and reported in millimeters.

[1] = Staphylococcus aureus, read-out: Average zone diameter, MSSA ATCC 25923, CAMHA containing 1% P80, no prediffusion
[2] = Staphylococcus aureus, read-out: Average zone diameter, MSSA ATCC 25923, CAMHA containing 1% P80, prediffusion

CN[C@H](CC(C)C)C(=O)N[C@H]1C(=O)N[C@@H](CC(N)=O)C(=O)N[C@H]2C(=O)N[C@H]3C(=O)N[C@H](C(=O)N[C@H](C(=O)O)c4cc(O)cc(O)c4-c4cc3ccc4O)[C@H](O[C@H]3C[C@](C)(N)[C@@H](O)[C@H](C)O3)c3ccc(c(Cl)c3)Oc3cc2cc(c3O[C@@H]2O[C@H](CO)[C@@H](O)[C@H](O)[C@H]2O[C@H]2C[C@](C)(NCc3ccc(-c4ccc(Cl)cc4)cc3)[C@@H](O)[C@H](C)O2)Oc2ccc(cc2Cl)[C@H]1O [oritavancin, N-(4-(4-chlorophenyl)benzyl)A82846B]
Inhibition zone diameter (ATCC 25923, 25 μg (20 μl of 1.25 mg/ml) in 4% P80/Span 80 (1:1), calcium alginate swab, dried overnight): 22 mm and 20 mm | Inhibition zone diameter (ATCC 25923, 20 μl of 9 mg/ml oritavancin in 2.5% P80, prediffusion at 4° C. 3 h, duplicate determinations): 19 mm | Inhibition zone diameter (ATCC 25923, 20 μl of 9 mg/ml oritavancin in 2.5% P80, prediffusion at 4° C. 6 h, duplicate determinations): 22 mm | Inhibition zone diameter (ATCC 25923, 20 μl of 9 mg/ml oritavancin in 2.5% P80, prediffusion at room temperature 3 h, duplicate determinations): 17 mm | Inhibition zone diameter (ATCC 25923, 20 μl of 9 mg/ml oritavancin in 2.5% P80, prediffusion at room temperature 6 h, duplicate determinations): 18.5 mm | Inhibition zone diameter (ATCC 25923, Oxoid disks, 20 μl of 18 mg/ml oritavancin in 5% P80, stored 30 days at room temperature, prediffusion 6 hours at 4° C.): 17.5 mm | Average zone diameter (ATCC 25923, stored 1 day at room temperature): 15.0 mm | Average zone diameter (ATCC 25923, stored 4 days at room temperature): 15.8 mm | Average zone diameter (ATCC 25923, stored 6 days at room temperature): 16.3 mm | Average zone diameter (ATCC 25923, stored 8 days at room temperature): 17.0 mm | Average zone diameter (ATCC 25923, used same day): 14.0 mm | Increase of the area of the zone of clearance by prediffusion (MSSA ATCC 25923, 360 μg oritavancin in 0.002% P80): approximately 24% | Zone diameters (MSSA ATCC 25923, CAMHA containing 1% P80, disks with various concentrations of oritavancin in 0.002% P80, even with 3 h prediffusion): < 15 mm | Inhibition zone diameter (MSSA ATCC 25923, Oxoid disk, 180 μg, 5% P80, stored 7 days, prediffusion 3 h at 4° C., duplicates): 12.5 mm | Inhibition zone diameter (MSSA ATCC 25923, Oxoid disk, 270 μg, 5% P80, stored 7 days, prediffusion 3 h at 4° C., duplicates): 13.5 mm | Inhibition zone diameter (MSSA ATCC 25923, Whatman #5 disk, 180 μg, 2.5% P80, stored 7 days, prediffusion 3 h at 4° C., duplicates): 16 mm | Inhibition zone diameter (MSSA ATCC 25923, Whatman #5 disk, 360 μg, 5% P80, stored 7 days, prediffusion 3 h at 4° C., duplicates): 16.5 mm | Zone diameter (MSSA quality control strain ATCC 25923, different combinations of the alterations to the traditional assay): up to 24 mm | zone of inhibition at 360 µg/disc (Staphylococcus aureus, 3 h, read-out: Average zone diameter, ATCC 25923, 360 μg oritavancin, excipient 10% HPCD, disks made same day, 3 h prediffusion, average of 2 disks): 17.5 mm | zone of inhibition at 9000 µg/mL (Staphylococcus aureus, 3 h, 20 μl of 9 mg/ml oritavancin in 2.5% P80, prediffusion at 4° C. 3 h, duplicate determinations): 18 mm | zone of inhibition at 9000 µg/mL (Staphylococcus aureus, 3 h, 20 μl of 9 mg/ml oritavancin in 2.5% P80, prediffusion at room temperature 3 h, duplicate determinations): 16.5 mm | zone of inhibition at 50 µg/disc (Staphylococcus aureus, 3 h, read-out: Inhibition zone diameter, MSSA ATCC 25923, 50 μg oritavancin, 0.5% P80/Span 80 (35:65) in water, dried approx. 3 hours, estimate of diameter): 10 mm | zone of inhibition at 50 µg/disc (Staphylococcus aureus, 3 h, read-out: Inhibition zone diameter, MSSA ATCC 25923, 50 μg oritavancin, 1% P80/Span 80 (35:65) in water, dried approx. 3 hours, estimate of diameter): 15 mm | zone of inhibition at 50 µg/disc (Staphylococcus aureus, 3 h, read-out: Inhibition zone diameter, MSSA ATCC 25923, 50 μg oritavancin, 2% P80/Span 80 (35:65) in water, dried approx. 3 hours, estimate of diameter): 20 mm | zone of inhibition at 50 µg/disc (Staphylococcus aureus, 3 h, read-out: Inhibition zone diameter, MSSA ATCC 25923, 50 μg oritavancin, 4% P80/Span 80 (35:65) in water, dried approx. 3 hours, estimate of diameter): 28 mm | zone of inhibition at 9000 µg/mL (Staphylococcus aureus, 6 h, 20 μl of 9 mg/ml oritavancin in 2.5% P80, prediffusion at 4° C. 6 h, duplicate determinations): 21 mm | zone of inhibition at 9000 µg/mL (Staphylococcus aureus, 6 h, 20 μl of 9 mg/ml oritavancin in 2.5% P80, prediffusion at room temperature 6 h, duplicate determinations): 18 mm | zone of inhibition at 360 µg/disc (Staphylococcus aureus, 192 h, read-out: Zone diameter (mm ± SD), ATCC 25923, 360 μg in 5% P80, Experiment 2, disks stored 8 days, no prediffusion): 14.5 mm | zone of inhibition at 360 µg/disc (Staphylococcus aureus, 216 h, read-out: Average zone diameter, MSSA ATCC 25923, 360 μg oritavancin in 0.002% P80, without prediffusion, two disks (FIG. 1A), disks stored 9 days): 10.5 mm | zone of inhibition at 360 µg/disc (Staphylococcus aureus, 216 h, read-out: Average zone diameter, MSSA ATCC 25923, 360 μg oritavancin in 5% P80, with prediffusion (FIG. 1D), disks stored 9 days): 17 mm | zone of inhibition at 360 µg/disc (Staphylococcus aureus, 216 h, read-out: Average zone diameter, MSSA ATCC 25923, 360 μg oritavancin in 5% P80, without prediffusion (FIG. 1B), disks stored 9 days): 14.8 mm | zone of inhibition at 360 µg/disc (Staphylococcus aureus, 336 h, read-out: Zone diameter (mm ± SD), ATCC 25923, 360 μg in 5% P80, Experiment 1, disks stored 14 days, no prediffusion): 15.3 ± 0.4 mm | zone of inhibition at 360 µg/disc (Staphylococcus aureus, read-out: Average zone diameter, ATCC 25923, 360 μg oritavancin, excipient 5% P80, disks stored 5 days at room temperature, 3 h prediffusion, average of 2 disks): 19 mm | zone of inhibition at 45 µg/disc [1]: 12 mm | zone of inhibition at 45 µg/disc [2]: 12.3 mm | zone of inhibition at 90 µg/disc [1]: 11.8 mm | zone of inhibition at 90 µg/disc [2]: 12.8 mm | zone of inhibition at 180 µg/disc [1]: 12.3 mm | zone of inhibition at 180 µg/disc [2]: 13 mm | zone of inhibition at 360 µg/disc (Staphylococcus aureus, read-out: Average zone diameter, MSSA ATCC 25923, 360 μg oritavancin in 0.002% P80, CAMHA containing 1% P80, no prediffusion): 12.8 mm | zone of inhibition at 360 µg/disc (Staphylococcus aureus, read-out: Average zone diameter, MSSA ATCC 25923, 360 μg oritavancin in 0.002% P80, CAMHA containing 1% P80, prediffusion): 12.5 mm | zone of inhibition at 12.5 µg/disc (Staphylococcus aureus, read-out: Inhibition zone diameter, 25923, calcium alginate swab, dried overnight): 20 mm | zone of inhibition at 12.5 µg/disc (Staphylococcus aureus, read-out: Inhibition zone diameter, 25923, cotton swab, dried overnight, estimate of diameter): 27 mm | zone of inhibition at 25 µg/disc (Staphylococcus aureus, read-out: Inhibition zone diameter, 25923, 25 μg in 4% P80/Span 80 (1:1), cotton swab (Table 14), dried overnight, estimate of diameter): 30 mm | zone of inhibition at 50 µg/disc (Staphylococcus aureus, read-out: Inhibition zone diameter, 25923, 50 μg in 4% P80/Span 80 (1:1), calcium alginate swab, dried overnight): 19 mm
